{"source": "ChEMBL document CHEMBL5154828", "about": "(J Med Chem, 2022)", "key": {"Estrogen receptor [1]": {"target": "T1, Estrogen receptor (Homo sapiens, UniProt P03372)", "T1 sequence (P03372 whole entry)": "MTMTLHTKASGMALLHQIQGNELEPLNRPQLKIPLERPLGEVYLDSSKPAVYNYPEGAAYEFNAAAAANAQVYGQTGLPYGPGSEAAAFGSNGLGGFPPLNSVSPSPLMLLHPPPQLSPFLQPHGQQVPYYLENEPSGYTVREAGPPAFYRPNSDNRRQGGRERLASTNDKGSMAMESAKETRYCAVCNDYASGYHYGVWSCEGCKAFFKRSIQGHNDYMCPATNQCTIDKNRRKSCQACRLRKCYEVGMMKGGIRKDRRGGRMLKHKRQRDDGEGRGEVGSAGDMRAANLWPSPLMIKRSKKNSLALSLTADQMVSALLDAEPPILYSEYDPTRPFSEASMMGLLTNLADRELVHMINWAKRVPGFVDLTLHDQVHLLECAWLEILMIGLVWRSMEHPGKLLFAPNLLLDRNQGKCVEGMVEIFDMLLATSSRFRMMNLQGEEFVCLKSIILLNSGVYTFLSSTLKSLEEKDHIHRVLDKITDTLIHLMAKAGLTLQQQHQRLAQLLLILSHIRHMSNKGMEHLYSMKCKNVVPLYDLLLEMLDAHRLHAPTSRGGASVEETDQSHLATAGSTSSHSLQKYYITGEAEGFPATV", "assay": "Induction of ERalpha degradation in human MCF7 cells incubated for 24 hrs by Western blot analysis", "type": "cell-based"}, "[2]": {"assay": "Cmax in Sprague-Dawley rat at 10 mg/kg, po measured up to 24 hrs by LC/MS/MS analysis", "type": "ADME, organism-based", "set-up": "time < 24 hrs, dose 10 mg/kg, route po", "conditions": "in vivo"}, "[3]": {"assay": "AUC (0 to t) in Sprague-Dawley rat at 10 mg/kg, po measured up to 24 hrs by LC/MS/MS analysis", "type": "ADME, organism-based", "set-up": "time < 24 hrs, dose 10 mg/kg, route po", "conditions": "in vivo"}, "Estrogen receptor [4]": {"target": "Estrogen receptor (Homo sapiens, UniProt P03372, Y537S)", "sequence (P03372 whole entry Y537S)": "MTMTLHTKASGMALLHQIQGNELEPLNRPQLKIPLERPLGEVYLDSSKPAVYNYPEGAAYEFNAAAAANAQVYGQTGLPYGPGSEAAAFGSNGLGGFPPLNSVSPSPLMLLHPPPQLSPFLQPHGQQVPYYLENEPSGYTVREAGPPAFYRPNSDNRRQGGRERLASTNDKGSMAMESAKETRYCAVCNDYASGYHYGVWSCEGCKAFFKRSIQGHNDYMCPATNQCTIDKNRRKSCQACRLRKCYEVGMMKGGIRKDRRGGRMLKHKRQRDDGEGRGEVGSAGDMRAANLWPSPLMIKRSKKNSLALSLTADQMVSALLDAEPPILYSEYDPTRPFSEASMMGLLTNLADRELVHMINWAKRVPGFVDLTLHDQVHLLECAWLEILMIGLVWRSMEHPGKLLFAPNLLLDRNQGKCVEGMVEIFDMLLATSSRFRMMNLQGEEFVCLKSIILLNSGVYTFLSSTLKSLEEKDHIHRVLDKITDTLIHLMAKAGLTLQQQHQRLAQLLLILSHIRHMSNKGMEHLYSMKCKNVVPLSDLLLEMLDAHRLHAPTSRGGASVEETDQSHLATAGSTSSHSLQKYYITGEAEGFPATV", "assay": "Antagonist activity at ERalpha Y537S mutant degradation in human SK-BR-3 cells incubated for 24 hrs in presence of beta-estradiol by luciferase gene assay", "type": "cell-based"}, "Estrogen receptor [5]": {"target": "Estrogen receptor (Homo sapiens, UniProt P03372, D538G)", "sequence (P03372 whole entry D538G)": "as the sequence (P03372 whole entry Y537S) above, with S537Y, D538G counted along it", "assay": "Antagonist activity at ERalpha D538G mutant degradation in human SK-BR-3 cells incubated for 24 hrs in presence of beta-estradiol by luciferase gene assay", "type": "cell-based"}, "[6]": {"assay": "Cmax in Sprague-Dawley rat at 5 mg/kg, po measured up to 24 hrs by LC/MS/MS analysis", "type": "ADME, organism-based", "set-up": "time < 24 hrs, dose 5 mg/kg, route po", "conditions": "in vivo"}, "[7]": {"assay": "AUC (0 to t) in Sprague-Dawley rat at 5 mg/kg, po measured up to 24 hrs by LC/MS/MS analysis", "type": "ADME, organism-based", "set-up": "time < 24 hrs, dose 5 mg/kg, route po", "conditions": "in vivo"}, "MCF7": {"test_system": "MCF7", "assay": "Anti-hyperplasia activity in […] Sprague-Dawley rat assessed as appearance of tall columnar phenotype in epithelial cells at 60 mg/kg, po once daily for 3 days by hematoxylin and eosin staining based assay", "type": "functional, organism-based", "conditions": "time 3.0 day"}}, "note": "Activity calls are given as the source filed them. No cut-off for these calls is given here."}
{"molecule": "CC(F)(F)c1cc(Cl)ccc1-c1sc2c(ccc3[nH]ncc32)c1Oc1ccc(NC2CN(CCCF)C2)cc1", "values": [{"measurement": "EC50", "setting": "Estrogen receptor [1]", "result": 1.2, "unit": "nM"}, {"measurement": "Cmax", "setting": "[2]", "result": 228, "unit": "ng/mL"}, {"measurement": "AUC(0-t) at 24 h", "setting": "[3]", "result": 3090, "unit": "ng·h/mL"}, {"measurement": "IC50", "setting": "Estrogen receptor [4]", "result": 13.1, "unit": "nM"}, {"measurement": "IC50", "setting": "Estrogen receptor [5]", "result": 16.6, "unit": "nM"}]}
{"molecule": "CC(F)(F)c1cc(-c2sc3cc(O)ccc3c2Oc2ccc(/C=C/C(=O)O)cc2)ccc1F", "values": [{"measurement": "Cmax", "setting": "[6]", "result": 283, "unit": "ng/mL"}, {"measurement": "AUC(0-t) at 24 h", "setting": "[7]", "result": 585, "unit": "ng·h/mL"}]}
{"molecule": "CC/C(=C(\\c1ccc(O)cc1)c1ccc(OCCN(C)C)cc1)c1ccccc1", "values": [{"measurement": "Activity", "setting": "MCF7", "result": "Active"}]}
